From patent US20110009351A1, “SCREENING ASSAY TO IDENTIFY CORRECTORS OF PROTEIN TRAFFICKING DEFECTS” (Traffick Therepeutics Inc., priority 2007, published 2011)
Counter-ions that a name gives are not always drawn.

What was measured:
[1] = target: T1, ΔF508-CFTR (Mus musculus, UniProt P26361, DEL508-508); test: in vivo treatment of ΔF508-CFTR mice by gavage, Isc of freshly isolated ileum; conditions: 50 mg/kg by gavage, once per day, 2 days
T1 construct: from tissue; host or cells: ileal mucosa of homozygous ΔF508 mice (A11 ex vivo, A12 after gavage); salivary secretion in the living mouse (A13)
Method: (§1) Glafenine was tested ex vivo and in vivo using ileum from homozygous Δ508-CFTR mice (CFTR^tm1 Eur; van Doorninck et al., 1995) and wild-type littermates controls. Mice were 14-17 weeks old, weighed 24-30 g, and were genotyped by standard PCR methods using tail DNA. The mice were kept in a pathogen-free environment in the animal facility at McGill University and fed a high protein diet (SRM-A, Hope Farms, Woerden, NL) modified to contain pork instead of beef. All procedures followed Canadian Institutes of Health Research (CIHR) guidlines and were approved by the faculty Animal Care Committee. For ex vivo experiments, ileal mucosa was stripped of muscle and incubated in William's E-Glutamax medium supplemented with insulin (10 μg/ml), 100 U/ml penicillin, and 100 μg/ml streptomycin and dexamethasone (1.6 ng/ml) containing 0.1% DMSO (control) or DMSO containing glafenine for 5 h. The tissue was then rinsed repeatedly and mounted in Ussing chambers to measure […]. For in vivo experiments, mice were feed once per day by gavage with saline containing glafenine (50 mg/kg) or vehicle alone (0.1% DMSO). After 2 days of glafenine treatment the mice were euthanized under CO2, the intestine was dissected and the short circuit current was measured as described above.

[2] = target: ΔF508-CFTR (Homo sapiens, UniProt P13569, DEL508-508); test: short-circuit current (Isc) across CFBE41o− monolayers in Ussing chambers; format: cell-based; parameters: expressed in transfected cells; host or cells: CFBE41o- (ΔF508/ΔF508) transduced with ΔF508-CFTR, TranzVector lentivirus, provided by J. P. Clancy; conditions: 10 μM, 24 h
Method: Short-circuit current (Isc) was measured across monolayers in modified Ussing chambers. 1×10^6 CFBE41o^− cells were seeded onto 12-mm fibronectin-coated Snapwell inserts (Corning Incorporated, Life Sciences, New-York, N.Y.) and the apical medium was removed after 24 h. Transepithelial resistance was monitored using an EVOM epithelial voltohmmeter (World Precision Instruments, Sarasota, Fla.) and cells were used when the transepithelial resistance was 300-400 ohms·cm^2. In some experiments, F508del-CFBE41o^− monolayers were incubated at 29° C. or treated with glafenine at 37° C. for 24 h before being mounted in EasyMount chambers and voltage clamped using a VCCMC6 multichannel current-voltage clamp (Physiologic Instruments, San Diego, Calif.). The apical membrane conductance was functionally isolated by permeabilizing the basolateral membrane with 200 μg/ml nystatin and imposing an apical-to-basolateral Cl^− gradient. For these experiments the basolateral bathing solution contained (in mM) 1.2 NaCl, 115 Na-gluconate, 25 NaHCO3, 1.2 MgCl2, 4 CaCl2, 2.4, KH2PO4, 1.24 K2HPO4, 10 glucose (pH 7.4 with NaOH). The CaCl2 concentration was increased to 4 mM to compensate for the chelation of calcium by gluconate. The apical bathing solution contained (in mM) 115 NaCl, 25 NaHCO3, 1.2 MgCl2, 1.2 CaCl2, 2.4 KH2PO4, 1.24 K2HPO4, 10 mannitol (pH 7.4 with NaOH). […]

[3] = target: T1, ΔF508-CFTR; test: ex vivo treatment of ileum from ΔF508-CFTR mice, Isc response to forskolin+genistein; conditions: 20 μM, 5-6 h ex vivo
Method: as §1

T1 sequence (P26361 with tags, fused parts or gaps DEL508-508): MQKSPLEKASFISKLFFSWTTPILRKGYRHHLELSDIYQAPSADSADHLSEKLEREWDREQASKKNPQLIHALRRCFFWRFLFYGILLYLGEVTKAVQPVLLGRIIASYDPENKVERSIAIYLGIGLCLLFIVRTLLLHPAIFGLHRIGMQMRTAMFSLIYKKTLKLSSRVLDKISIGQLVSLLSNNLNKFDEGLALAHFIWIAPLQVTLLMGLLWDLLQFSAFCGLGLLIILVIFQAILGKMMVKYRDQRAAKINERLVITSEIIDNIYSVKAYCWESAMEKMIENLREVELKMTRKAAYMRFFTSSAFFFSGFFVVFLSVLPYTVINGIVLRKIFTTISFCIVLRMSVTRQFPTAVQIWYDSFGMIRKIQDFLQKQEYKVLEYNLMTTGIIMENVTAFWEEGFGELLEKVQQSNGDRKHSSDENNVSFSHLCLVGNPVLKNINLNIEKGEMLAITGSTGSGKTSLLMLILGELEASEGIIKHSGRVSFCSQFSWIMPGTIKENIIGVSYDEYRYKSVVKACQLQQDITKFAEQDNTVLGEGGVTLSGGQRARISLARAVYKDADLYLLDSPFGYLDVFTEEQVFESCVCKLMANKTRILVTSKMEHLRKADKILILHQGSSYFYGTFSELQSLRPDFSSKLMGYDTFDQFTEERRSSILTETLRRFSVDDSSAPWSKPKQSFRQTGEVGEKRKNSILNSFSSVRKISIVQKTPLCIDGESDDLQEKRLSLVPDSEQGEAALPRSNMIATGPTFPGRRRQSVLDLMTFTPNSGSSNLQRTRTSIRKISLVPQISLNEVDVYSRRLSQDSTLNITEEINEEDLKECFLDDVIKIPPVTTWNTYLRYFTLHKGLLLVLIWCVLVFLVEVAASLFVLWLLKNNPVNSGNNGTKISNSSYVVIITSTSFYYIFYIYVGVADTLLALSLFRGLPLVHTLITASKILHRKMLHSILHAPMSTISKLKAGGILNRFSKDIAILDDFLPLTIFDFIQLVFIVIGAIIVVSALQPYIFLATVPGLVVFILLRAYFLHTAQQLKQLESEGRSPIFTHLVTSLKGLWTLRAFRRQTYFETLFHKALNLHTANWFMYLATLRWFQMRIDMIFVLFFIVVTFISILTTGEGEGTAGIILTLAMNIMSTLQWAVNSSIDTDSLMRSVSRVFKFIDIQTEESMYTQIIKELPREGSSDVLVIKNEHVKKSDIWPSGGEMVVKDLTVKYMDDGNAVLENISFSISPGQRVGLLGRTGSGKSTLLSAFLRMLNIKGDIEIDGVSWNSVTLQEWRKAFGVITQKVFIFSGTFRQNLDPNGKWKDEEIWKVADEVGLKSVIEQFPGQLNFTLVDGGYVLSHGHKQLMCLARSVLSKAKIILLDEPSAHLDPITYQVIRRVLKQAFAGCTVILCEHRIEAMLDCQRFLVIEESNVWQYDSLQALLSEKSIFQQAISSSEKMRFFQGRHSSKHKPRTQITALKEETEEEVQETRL
ΔF508-CFTR (Homo sapiens, UniProt P13569, DEL508-508), sequence (P13569 with tags, fused parts or gaps DEL508-508): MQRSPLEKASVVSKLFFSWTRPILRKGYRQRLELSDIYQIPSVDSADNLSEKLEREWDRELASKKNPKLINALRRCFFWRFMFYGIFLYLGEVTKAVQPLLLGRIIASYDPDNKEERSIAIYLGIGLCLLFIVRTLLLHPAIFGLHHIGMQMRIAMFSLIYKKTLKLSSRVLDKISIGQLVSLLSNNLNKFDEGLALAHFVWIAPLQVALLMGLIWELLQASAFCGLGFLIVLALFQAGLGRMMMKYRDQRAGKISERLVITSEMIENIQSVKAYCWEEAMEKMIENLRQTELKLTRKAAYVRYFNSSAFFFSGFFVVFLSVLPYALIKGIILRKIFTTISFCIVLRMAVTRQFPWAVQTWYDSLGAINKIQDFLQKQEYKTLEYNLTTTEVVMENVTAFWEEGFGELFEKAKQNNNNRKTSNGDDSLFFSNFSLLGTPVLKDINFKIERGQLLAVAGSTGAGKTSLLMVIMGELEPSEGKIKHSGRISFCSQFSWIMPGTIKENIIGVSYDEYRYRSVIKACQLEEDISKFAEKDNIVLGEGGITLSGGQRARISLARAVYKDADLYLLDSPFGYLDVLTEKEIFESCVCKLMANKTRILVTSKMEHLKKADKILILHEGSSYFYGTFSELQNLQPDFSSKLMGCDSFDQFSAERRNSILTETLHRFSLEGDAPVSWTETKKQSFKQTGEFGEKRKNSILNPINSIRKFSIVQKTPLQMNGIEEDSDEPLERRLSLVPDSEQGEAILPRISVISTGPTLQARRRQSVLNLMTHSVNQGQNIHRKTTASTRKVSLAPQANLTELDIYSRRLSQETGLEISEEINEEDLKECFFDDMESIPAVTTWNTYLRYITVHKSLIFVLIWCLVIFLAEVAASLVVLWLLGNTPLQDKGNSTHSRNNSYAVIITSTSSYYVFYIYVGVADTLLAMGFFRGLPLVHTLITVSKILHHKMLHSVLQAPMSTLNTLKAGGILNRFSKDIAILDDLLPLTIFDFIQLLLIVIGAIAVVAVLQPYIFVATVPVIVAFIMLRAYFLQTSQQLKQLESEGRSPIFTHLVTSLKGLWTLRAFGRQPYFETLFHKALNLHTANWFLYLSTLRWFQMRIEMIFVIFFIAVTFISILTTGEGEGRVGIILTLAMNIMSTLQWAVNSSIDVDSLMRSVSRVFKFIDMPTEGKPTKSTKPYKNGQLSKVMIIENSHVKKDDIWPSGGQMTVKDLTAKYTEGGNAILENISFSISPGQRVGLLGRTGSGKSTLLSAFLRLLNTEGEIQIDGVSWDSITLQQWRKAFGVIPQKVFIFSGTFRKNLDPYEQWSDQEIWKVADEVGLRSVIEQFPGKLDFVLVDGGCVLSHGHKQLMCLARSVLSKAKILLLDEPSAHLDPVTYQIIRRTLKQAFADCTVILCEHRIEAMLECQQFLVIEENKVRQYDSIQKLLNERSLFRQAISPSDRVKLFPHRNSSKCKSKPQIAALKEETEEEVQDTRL

## O=C(OCC(O)CO)c1ccccc1Nc1ccnc2cc(Cl)ccc12 (stereo not shown) [Glafenine hydrochloride, 2-[(7-chloro-4-quinolinyl)amino]benzoic acid 2,3-dihydroxypropyl ester]
[1]
  forskolin+genistein-stimulated current compared to mice fed with saline alone: ~7 fold
[2]
  increase of forskolin+genistein-stimulated Isc compared with DMSO controls: about 2.5 fold
[3]
  forskolin+genistein-stimulated current versus vehicle alone: ~12 fold
  restoration of the secretory response observed in wild-type mice: ~46% and ≈ 46%
